Assay results from patent publication US20090209536A1, “AMINOQUINAZOLINE CANNABINOID RECEPTOR MODULATORS FOR TREATMENT OF DISEASE” (KALYPSYS, INC., priority 2007, published 2009).
Read-outs that look alike come from different tables or passages of the source.

Legend:
[1] = biological target: T1, human cannabinoid receptor type 1 (Homo sapiens, UniProt P21554); assay: Human CB1 Radioligand Binding Assay (basis of selectivity, CB2 vs. CB1); conditions: CB1: HEK 293 EBNA cells expressing human CB1; CB2: CHO CB2 membranes
T1 construct: purchased Perkin Elmer RBHCB1M; host or cells: HEK 293 EBNA cells
Experimental: 2. Human CB1 Radioligand Binding Assay
The incubation buffer was composed of 50 mM Tris-HCl pH 7.4, 2.5 mM EDTA, 5 mM MgCl2, 5.0 mg/ml fatty acid free BSA and the wash buffer was composed of 50 mM Tris-HCl pH 7.4, 2.5 mM EDTA, 5 mM MgCl2, 0.5 mg/ml fatty acid free BSA.

[2] = biological target: T2, human cannabinoid receptor type 2 (Homo sapiens, UniProt P34972); assay: Human CB2 Radioligand Binding Assay; conditions: membranes from stably transfected CHO CB2 cells
T2 construct: expressed in transfected cells; membrane preparation
Outline: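 Test compounds (10 uM final, or dose-response) competed with [3H]CP-55,940, used at the Kd determined per membrane lot, for binding to stable human CB2-CHO membranes over 90 min at 30° C in pH 7.4 Tris/EGTA/MgCl2/BSA buffer. GF/C filtration then scintillation counting; 100 nM CP-55,940 defined 100% efficacy.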

[3] = CB2 Ligand Binding Asssay EC50, competition with [3H] CP-55,940
[4] = competition with [3H] CP-55,940, read-out: CB2 Ligand Binding Asssay EC50

T1 sequence (P21554 whole entry): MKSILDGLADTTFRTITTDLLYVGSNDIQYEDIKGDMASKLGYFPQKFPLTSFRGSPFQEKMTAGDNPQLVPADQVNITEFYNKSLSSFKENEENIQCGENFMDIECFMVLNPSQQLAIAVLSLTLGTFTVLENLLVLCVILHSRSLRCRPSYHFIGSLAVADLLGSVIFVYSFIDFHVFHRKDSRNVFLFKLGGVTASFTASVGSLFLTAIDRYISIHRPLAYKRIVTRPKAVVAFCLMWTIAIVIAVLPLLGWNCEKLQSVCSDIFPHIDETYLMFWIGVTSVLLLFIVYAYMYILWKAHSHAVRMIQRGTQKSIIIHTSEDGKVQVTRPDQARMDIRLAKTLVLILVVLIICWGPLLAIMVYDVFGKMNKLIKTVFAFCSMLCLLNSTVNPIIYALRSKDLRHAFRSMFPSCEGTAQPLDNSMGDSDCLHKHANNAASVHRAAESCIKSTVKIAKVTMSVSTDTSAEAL
T2 sequence (P34972 whole entry): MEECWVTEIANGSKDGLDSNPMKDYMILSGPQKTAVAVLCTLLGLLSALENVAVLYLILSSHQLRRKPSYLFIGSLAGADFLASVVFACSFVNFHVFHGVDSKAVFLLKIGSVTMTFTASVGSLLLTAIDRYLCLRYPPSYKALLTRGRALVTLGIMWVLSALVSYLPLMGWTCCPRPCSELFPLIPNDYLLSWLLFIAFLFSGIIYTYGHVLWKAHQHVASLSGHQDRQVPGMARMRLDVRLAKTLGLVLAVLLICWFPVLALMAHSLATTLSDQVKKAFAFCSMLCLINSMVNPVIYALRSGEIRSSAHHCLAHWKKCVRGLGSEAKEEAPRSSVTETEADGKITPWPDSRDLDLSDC

Selectivity, CB2 vs. CB1 [1]	EC50 [2, 4]	Structure (SMILES)	EC50 [2, 3]
+ (+ indicates > 10−fold)	< 1 µM	O=C(C1CC1)N1CCN(c2nc(-c3ccccc3Cl)nc3ccccc23)CC1 [Example 97, (4-(2-(2-Chlorophenyl)quinazolin-4-yl)piperazin-1-yl)(cyclopropyl)methanone]	
+ (+ indicates > 10−fold)	< 1 µM	CCC(=O)N1CCN(c2nc(-c3ccccc3Cl)nc3ccccc23)CC1 [Example 98, 1-(4-(2-(2-Chlorophenyl)quinazolin-4-yl)piperazin-1-yl)propan-1-one]	
+ (+ indicates > 10−fold)	< 1 µM	CC(=O)N1CCN(c2nc(-c3ccccc3Cl)nc3ccccc23)CC1 [Example 99, 1-(4-(2-(2-Chlorophenyl)quinazolin-4-yl)piperazin-1-yl)ethanone]	
− (− indicates ≦ 10−fold)	> 1 µM	CN(C)C(=O)C1CCN(c2nc(-c3ccccc3Cl)nc3ccccc23)CC1 [Example 102, 1-(2-(2-Chlorophenyl)quinazolin-4-yl)-N,N-dimethylpiperidine-4-carboxamide]	
− (− indicates ≦ 10−fold)	< 1 µM	O=C(N1CCN(c2nc(-c3ccccc3Cl)nc3ccccc23)CC1)C(F)(F)F [Example 103, 1-(4-(2-(2-Chlorophenyl)quinazolin-4-yl)piperazin-1-yl)-2,2,2-trifluoroethanone]	
− (− indicates ≦ 10−fold)	< 1 µM	FC(F)(F)CN1CCN(c2nc(-c3ccccc3Cl)nc3ccccc23)CC1 [Example 104, 2-(2-chlorophenyl)-4-(4-(2,2,2-trifluoroethyl)piperazin-1-yl)quinazoline]	
+ (+ indicates > 10−fold)	< 1 µM	CCN1CCN(c2nc(-c3ccccc3Cl)nc3ccccc23)CC1 [Example 105, 2-(2-chlorophenyl)-4-(4-ethylpiperazin-1-yl)quinazoline]	
+ (+ indicates > 10−fold)	< 1 µM	FC(F)(F)N1CCN(c2nc(-c3ccccc3Cl)nc3ccccc23)CC1 [Example 106, 2-(2-Chlorophenyl)-4-(4-(trifluoromethyl)piperazin-1-yl)quinazoline]	
− (− indicates ≦ 10−fold)	> 1 µM	CCCCN1CCN(c2nc(-c3ccccc3Cl)nc3ccccc23)CC1 [Example 107]	
+ (+ indicates > 10−fold)	< 1 µM	CCCN1CCN(c2nc(-c3ccccc3Cl)nc3ccccc23)CC1 [Example 108, 2-(2-Chlorophenyl)-4-(4-propylpiperazin-1-yl)quinazoline]	
+ (+ indicates > 10−fold)	< 1 µM	CC(C)(C)c1ccc(-c2nc(N3CCCC3)c3ccccc3n2)cc1 [Example 110, 2-(4-tert-Butylphenyl)-4-(pyrrolidin-1-yl)quinazoline]	
− (− indicates ≦ 10−fold)	< 1 µM	CC(C)(C)c1ccc(-c2nc(N3CCCCC3)c3ccccc3n2)cc1 [Example 111, 2-(4-tert-Butylphenyl)-4-(piperidin-1-yl)quinazoline]	
− (− indicates ≦ 10−fold)	< 1 µM	CC(C)(C)c1ccc(-c2nc(N3CCOCC3)c3ccccc3n2)cc1 [Example 112, 4-(2-(4-tert-Butylphenyl)quinazolin-4-yl)morpholine]	
− (− indicates ≦ 10−fold)	> 1 µM	CN(Cc1ccccc1)c1nc(-c2ccc(C(C)(C)C)cc2)nc2ccccc12 [Example 113, N-Benzyl-2-(4-tert-butylphenyl)-N-methylquinazolin-4-amine]	
+ (+ indicates > 10−fold)	< 1 µM	CC(C)(C)c1ccc(-c2nc(N3CCSCC3)c3ccccc3n2)cc1 [Example 114, 2-(4-tert-Butylphenyl)-4-thiomorpholin-4-ylquinazoline]	
− (− indicates ≦ 10−fold)	> 1 µM	CC(C)(C)c1ccc(-c2nc(Nc3ccc(F)cc3F)c3ccccc3n2)cc1 [Example 115, 2-(4-tert-Butylphenyl)-N-(2,4-difluorophenyl)quinazolin-4-amine]	
− (− indicates ≦ 10−fold)	> 1 µM	CN(c1ccc(F)cc1F)c1nc(-c2ccc(C(C)(C)C)cc2)nc2ccccc12 [Example 116, 2-(4-tert-Butylphenyl)-N-(2,4-difluorophenyl)-N-methylquinazolin-4-amine]	
− (− indicates ≦ 10−fold)	< 1 µM	CC(C)(C)c1ccc(-c2nc(Nc3ccc(F)c(F)c3)c3ccccc3n2)cc1 [Example 117, 2-(4-tert-Butylphenyl)-N-(3,4-difluorophenyl)quinazolin-4-amine]	

Further lines, the compound ahead of its results:

Structure (SMILES)	Selectivity, CB2 vs. CB1 [1]	EC50 [2, 4]	EC50 [2, 3]
CC(C)S(=O)(=O)N1CCN(c2nc(-c3ccccc3Cl)nc3ccccc23)CC1 [Example 83, 2-(2-Chlorophenyl)-4-[4-(propane-2-sulfonyl)piperazin-1-yl]quinazoline]	− (− indicates ≦ 10−fold)		> 1 µM
CCCS(=O)(=O)N1CCN(c2nc(-c3ccccc3Cl)nc3ccccc23)CC1 [Example 84, 2-(2-Chlorophenyl)-4-(4-(propylsulfonyl)piperazin-1-yl)quinazoline]	− (− indicates ≦ 10−fold)	> 1 µM	
CCS(=O)(=O)N1CCN(c2nc(-c3ccccc3Cl)nc3ccccc23)CC1 [Example 85, 2-(2-Chlorophenyl)-4-(4-(ethylsulfonyl)piperazin-1-yl)quinazoline]	− (− indicates ≦ 10−fold)		> 1 µM
CS(=O)(=O)N1CCN(c2nc(-c3ccccc3Cl)nc3ccccc23)CC1 [Example 86, 2-(2-Chlorophenyl)-4-(4-(methylsulfonyl)piperazin-1-yl)quinazoline]	− (− indicates ≦ 10−fold)	< 1 µM	
CCNC(=O)N1CCN(c2nc(-c3ccccc3Cl)nc3ccccc23)CC1 [Example 87, 4-(2-(2-chlorophenyl)quinazolin-4-yl)-N-ethylpiperazine-1-carboxamide]	− (− indicates ≦ 10−fold)	> 1 µM	
CNC(=O)N1CCN(c2nc(-c3ccccc3Cl)nc3ccccc23)CC1 [Example 88, 4-(2-(2-Chlorophenyl)quinazolin-4-yl)-N-methylpiperazine-1-carboxamide]	− (− indicates ≦ 10−fold)	> 1 µM	
CC(C)(C)NC(=O)N1CCN(c2nc(-c3ccccc3Cl)nc3ccccc23)CC1 [Example 89, N-tert-Butyl-4-(2-(2-chlorophenyl)quinazolin-4-yl)piperazine-1-carboxamide]	− (− indicates ≦ 10−fold)	> 1 µM	
CC(C)NC(=O)N1CCN(c2nc(-c3ccccc3Cl)nc3ccccc23)CC1 [Example 90, 4-(2-(2-Chlorophenyl)quinazolin-4-yl)-N-isopropylpiperazine-1-carboxamide]	− (− indicates ≦ 10−fold)		> 1 µM
CCCNC(=O)N1CCN(c2nc(-c3ccccc3Cl)nc3ccccc23)CC1 [Example 91, 4-(2-(2-Chlorophenyl)quinazolin-4-yl)-N-propylpiperazine-1-carboxamide]	− (− indicates ≦ 10−fold)		> 1 µM
COC(=O)N1CCN(c2nc(-c3ccccc3Cl)nc3ccccc23)CC1 [Example 92, Methyl 4-(2-(2-Chlorophenyl)quinazolin-4-yl)piperazine-1-carboxylate]	− (− indicates ≦ 10−fold)	> 1 µM	
CC(C)OC(=O)N1CCN(c2nc(-c3ccccc3Cl)nc3ccccc23)CC1 [Example 93, Isopropyl 4-(2-(2-chlorophenyl)quinazolin-4-yl)piperazine-1-carboxylate]	+ (+ indicates > 10−fold)		> 1 µM
CCCOC(=O)N1CCN(c2nc(-c3ccccc3Cl)nc3ccccc23)CC1 [Example 94, Propyl 4-(2-(2-chlorophenyl)quinazolin-4-yl)piperazine-1-carboxylate]	− (− indicates ≦ 10−fold)	> 1 µM	
CCCC(=O)N1CCN(c2nc(-c3ccccc3Cl)nc3ccccc23)CC1 [Example 95, 1-(4-(2-(2-Chlorophenyl)quinazolin-4-yl)piperazin-1-yl)butan-1-one]	+ (+ indicates > 10−fold)	< 1 µM	
CC(C)C(=O)N1CCN(c2nc(-c3ccccc3Cl)nc3ccccc23)CC1 [Example 96, 1-(4-(2-(2-Chlorophenyl)quinazolin-4-yl)piperazin-1-yl)-2-methylpropan-1-one]	+ (+ indicates > 10−fold)	< 1 µM	
CC1(C)C(C(=O)N2CCN(c3nc(-c4ccccc4Cl)nc4ccccc34)CC2)C1(C)C [Example 100, (4-(2-(2-Chlorophenyl)quinazolin-4-yl)piperazin-1-yl)(2,2,3,3-tetramethylcyclopropyl)methanone]	− (− indicates ≦ 10−fold)		> 1 µM
CN1CCN(c2nc(-c3ccc(C(C)(C)C)cc3)nc3ccccc23)CC1 [Example 109, 2-(4-tert-Butylphenyl)-4-(4-methylpiperazin-1-yl)quinazoline]	+ (+ indicates > 10−fold)	< 1 µM	
